For nine molecules, inhibition, EC50 and Papp A→B results are on record in US9249102B2 (priority 2012, dated 2016).

Like-named read-outs stand apart in the source and are kept apart here.

One series has as its system Haemonchus contortus. The series is described as follows: Method A: Haemonchus contortus L1 larvae, microtitre plate screen. The settings on record: 96 h, read-out: motility inhibition.
Series [1] relates to microfilaria of Dirofilaria immitis. The series is described as follows: Method F: microfilaria of Dirofilaria immitis, survival at 24 hours.
Series [2] can be described thus: Method G: permeability in the Caco-2/TC7 in vitro model. Particulars: human, Caco-2, pH 6.5.
[3] abbreviates: survival of microfilaria at 24 hours.

As for `N#Cc1ccc(N[C@H]2CC[C@H](OCC(=O)N3CCN(Cc4nc5cc(Cl)ccc5s4)CC3)CC2)cc1C(F)(F)F` [Compound 292, 4-[[4-[2-[4-[(5-chloro-1,3-benzothiazol-2-yl)methyl]piperazin-1-yl]-2-oxo-ethoxy]cyclohexyl]amino]-2-(trifluoromethyl)benzonitrile], in the series with Haemonchus contortus, the inhibition at 5 µg/mL is not below 90%. In addition, in series [1], the EC50 is less than 1 µg/mL. The Papp A→B at 20 μM in series [2] worked out at 8.3 ×10⁻⁶ cm/s.

In the case of `O=C(NCCO[C@H]1CC[C@H](Nc2ccc([N+](=O)[O-])c(C(F)(F)F)c2)CC1)C(=O)NCc1cc2cc(F)ccc2o1` [Compound 221, N^1-((5-fluorobenzofuran-2-yl)methyl)-N^2-(2-(4-(4-nitro-3-(trifluoromethyl)phenylamino)cyclohexyloxy)ethyl)oxalamide], in series [1] (setting [3]), the EC50 was less than 1 µg/mL. The same molecule registered a Papp A→B at 20 μM in series [2] of 7.5 ×10⁻⁶ cm/s.

Take `O=C(CO[C@H]1CC[C@H](Nc2ccc([N+](=O)[O-])c(C(F)(F)F)c2)CC1)N1CCN(CC2Cc3ccccc3O2)CC1` (some centres unmarked) [Compound 24, 1-[4-(2,3-dihydro-1-benzofuran-2-ylmethyl)piperazin-1-yl]-2-[(4-[[4-nitro-3-(trifluoromethyl)phenyl]amino]cyclohexyl)oxy]ethan-1-one]: in the series with Haemonchus contortus, the inhibition at 5 µg/mL was not below 90%. In addition, the EC50 in series [1] (setting [3]) is less than 1 µg/mL. The Papp A→B at 20 μM in series [2] was determined as 9.7 ×10⁻⁶ cm/s.

Consider `N#Cc1ccc(N[C@H]2CC[C@H](OCC(=O)N3CCN(CC4Cc5cc(C(F)(F)F)ccc5O4)CC3)CC2)cc1C(F)(F)F` (some centres unmarked) [Compound 84, 4-([4-[2-oxo-2-(4-[[5-(trifluoromethyl)-2,3-dihydro-1-benzofuran-2-yl]methyl]piperazin-1-yl)ethoxy]cyclohexyl]amino)-2-(trifluoromethyl)benzonitrile], for which the inhibition at 5 µg/mL in the series with Haemonchus contortus is not below 90%. This molecule also gave an EC50 in series [1] of less than 5 µg/mL. For the same molecule, the Papp A→B at 20 μM in series [2] worked out at 5.3 ×10⁻⁶ cm/s.

On to `CN(c1ccc([N+](=O)[O-])c(C(F)(F)F)c1)[C@H]1CC[C@H](OCC(=O)N2CCN(Cc3cc4cc(C(F)(F)F)ccc4o3)CC2)CC1` [Compound 256, 2-[[4-[methyl[4-nitro-3-(trifluoromethyl)phenyl]amino]cyclohexyl]oxy]-1-(4-[[5-(trifluorom-ethyl)-1-benzofuran-2-yl]methyl]piperazin-1-yl)ethan-1-one], for which the inhibition at 5 µg/mL in the series with Haemonchus contortus was not below 90%. The same molecule came in with an EC50 in series [1] (setting [3]) of less than 1 µg/mL. Also, in series [2], the Papp A→B at 20 μM was determined as 5.4 ×10⁻⁶ cm/s.

For `N#Cc1ccc(N[C@H]2CC[C@H](OCC(=O)N3CCN(Cc4cc5cc(C(F)(F)F)ccc5o4)CC3)CC2)cc1C(F)(F)F` [Compound 306, 4-(4-{2-oxo-2-[4-(5-trifluoromethyl-benzofuran-2-ylmethyl)-piperazin-1-yl]-ethoxy}-cyclohexylamino)-2-trifluoromethyl-benzonitrile], the inhibition at 5 µg/mL in the series with Haemonchus contortus is not below 90%. In series [1], this molecule came in with an EC50 of less than 0.1 µg/mL. This molecule had a Papp A→B at 20 μM in series [2] of 9 ×10⁻⁶ cm/s.

Turning to `O=C(CO[C@H]1CC[C@H](Nc2ccc([N+](=O)[O-])c(C(F)(F)F)c2)CC1)N1CCN(Cc2nc3cc(Cl)ccc3o2)CC1` [Compound 287, 2-[(4-[[4-nitro-3-(trifluoromethyl)phenyl]amino]cyclohexyl)-oxy]1-[4-(5-chlorobenzoxazol-2-ylmethyl)piperazin-1-yl]ethan-1-one], the inhibition at 5 µg/mL in the series with Haemonchus contortus was not below 90%. For the same molecule, in series [1] (setting [3]), the EC50 was less than 5 µg/mL. In series [2], this molecule came in with a Papp A→B at 20 μM of 11 ×10⁻⁶ cm/s.

On to `O=C(NCCO[C@H]1CC[C@H](Nc2ccc([N+](=O)[O-])c(C(F)(F)F)c2)CC1)C(=O)NCc1cc2cc(Cl)ccc2o1` [Compound 222], for which, in the series with Haemonchus contortus, the inhibition at 5 µg/mL is not below 90%. The molecule also gave an EC50 in series [1] (setting [3]) of less than 0.1 µg/mL. This molecule also came in with a Papp A→B at 20 μM in series [2] of 5 ×10⁻⁶ cm/s.

With `N#Cc1ccc(N[C@H]2CC[C@H](OCC(=O)N3CCN(Cc4nc5cc(F)ccc5s4)CC3)CC2)cc1C(F)(F)F` [Compound 294, 4-[[4-[2-[4-[(5-fluoro-1,3-benzothiazol-2-yl)methyl]piperazin-1-yl]-2-oxo-ethoxy]cyclohexyl]amino]-2-(trifluoromethyl)benzonitrile], in the series on Haemonchus contortus, the inhibition at 5 µg/mL was not below 90%. Also, in series [1], the EC50 was less than 5 µg/mL. Also, the Papp A→B at 20 μM in series [2] was found to be 8.2 ×10⁻⁶ cm/s.
